For data set [1] the following is noted: Coleman et al. 2001; cited from earlier work.
The test system of data set [2] is HEI-OC1 cells. Nature of the data set: Caspase-8 and caspase-9 assays in cisplatin-treated cells. It counts as cell-based, mouse.
Data set [3] deals with HEI-OC1 cells. In words: Cisplatin-induced apoptosis, DNA laddering and TUNEL. It counts as cell-based, mouse. The source says:
The HEI-OC1 cell line was cloned from cochlear half-turn explants from of an Immortomouse™. […] They are polygonal squamous cells with a dense perinuclear region containing a dense accumulation of multivesicular structures. These multivesicular structures were also observed in the rest of the cytoplasm, although at a lower density. HEI-OC1 cells co-express markers specific for both sensory and supporting cells. Expression of Math-1 and myosin VIIa by these cells indicate that HEI-OC1 cells are indeed sensory hair cell precursors.
Apoptosis was confirmed using TUNEL (ApoAlert DNA Fragmentation Assay—Clontech, Palo Alto, Calif.).

The test system of data set [4] is guinea pigs (mothers and newborns). Nature of the data set: Cisplatin-induced sensorineural hearing loss, auditory brainstem response (ABR). Type of data set: in vivo, guinea pig. The following applies: two weeks after delivery, cisplatin 4 mg/kg i.p. once a day for 2 days, LCAR 1 mg/ml in drinking water, mean ±S.E.M.
Data set [5] concerns outer hair cells (OHCs) of organ of Corti. It counts as in vivo. The method, then: Pregnant guinea pigs were divided in three groups of 4 each. […] Those from group #2 also received a supplementary dose of LCAR in their drinking water (1 mg/ml ad libitum˜100 mg/kg/day) during the second half of the pregnancy and the immediate postnatal period. Guinea pigs from group #3 (4 mothers & 10 newborns), the control group, were injected with saline solution. Two weeks after delivery, all guinea pigs (mothers and newborns) were anesthetized by intraperitoneal injections of ketamine hydrochloride (60 mg/kg) and xylazine hydrochloride (5 mg/kg), and their auditory brainstem responses (ABR) were measured. They were then euthanized with CO2, and potential cochlear damage was evaluated by confocal microscopy.
The ABR results described in FIG. 1 were independently corroborated by confocal microscopy of the organ of Corti in mothers and newborns. […] The results of FIG. 2 are quantified in Table 1 and FIG. 3.

Data set [6] has as its system newborn guinea pigs. Nature of the data set: Gentamicin-induced neonatal mortality. Type of data set: in vivo, guinea pig. The method, then:
(§1) Guinea pigs were used to evaluate the impact of prenatal LCAR supplementation on stress- and gentamicin-induced mortality in newborns because this animal model closely resembles perinatal human physiology. Pregnant guinea pigs (n=25) were divided in five groups. […] In group #2, stress was induced by intraperitoneal injections of normal saline (once daily from days 51 to 57 of gestation). Guinea pigs in group #3 were injected with gentamicin (100 mg/kg once daily from days 51 to 57 of gestation). Finally, groups #4 and #5 were injected with gentamicin as described for group #3, but received LCAR supplementation in their water supply (1 mg/ml˜100 mg/kg/day) starting either 2 weeks prior (Group #4) or simultaneously with gentamicin (Group #5). Newborn mortality was defined as either stillborn or death within the first 48 hrs of life.

Data set [7] deals with HEI-OC1 cells. In words: LCAR prevention of cisplatin- and gentamicin-induced apoptosis, colorimetric CaspACE assay. The following applies: 48 hours pre-incubation with 2 mg/ml LCAR. It counts as cell-based, mouse. From the text: We further investigated whether LCAR was able to prevent cisplatin- and gentamicin-induced apoptosis in HEI-OC1 cells.
Data set [8] concerns guinea pigs (mothers and newborns). Nature of the data set: Noise-induced hearing loss (ABR) and cochlear damage. It counts as in vivo, guinea pig. The method, then: (§2) In order to evaluate noise-induced neonatal mortality and the potential impact of prenatal LCAR supplementation, six pregnant guinea pigs were divided into three groups of two animals each. Pregnant guinea pigs in groups #1 and #2 were exposed 4 hours a day during 4 consecutive days to broadband noise (100 Hz-10 kHz) at 95 SPL during days 50 to 53 of gestation. In addition, guinea pigs in group #2 received daily LCAR supplementation in their water supply (1 mg/ml˜100 mg/kg/day) from day 28 of gestation. […] Noise exposure was performed in a sound booth, with the animals in individual plastic cages placed on a wire shelf at ˜0.8 m above the floor. Since at this time of pregnancy guinea pigs spend most of the time resting with the abdomen in contact with the cage floor, the speakers were placed below the shelf, with the sound waves directed toward the cage's floor. Sound pressure levels were measured with a calibrated digital sound level meter (Radio Shack #33-2055) inside the plastic cages.
Noise-induced cochlear damage and changes in hearing threshold were evaluated in mothers and newborns (ten days after delivery) in the three groups described in the above paragraph. We found moderate threshold shifts (˜9 dB) in mothers exposed to noise (group #1). […] In newborns, we also observed a higher hearing threshold in noise-exposed animals than in those of the control group (36±2 dB group #1 and 30±1 dB group #2 vs. 22±1 dB group #3 control).
Similar damage, but concentrated in smaller regions, was present in cochleas from LCAR-supplemented animals.

The conditions of data set [9]: humans, cited from earlier work.
The test system of data set [10] is outer hair cells (OHCs) and stereocilia bundles. In words: Gentamicin-induced cochlear damage, confocal and scanning electron microscopy. Type of data set: in vivo, guinea pig. The procedure: as §1
Confocal and electron microscopy studies indicate that gentamicin induces both sensory cell death and stereocilia disruption in mothers and newborn guinea pigs. […] Whereas in Control animals the three rows of OHCs look generally intact (FIG. 6B), cochleas from guinea pigs treated with gentamicin show “scars” where supporting cells replaced dead OHCs (FIG. 6C). In addition, stereocilia bundles look completely disorganized, with significant structural changes and even “giant” stereocilia (FIG. 6D). […]

Data set [11] relates to guinea pigs (mothers and newborns). Nature of the data set: Gentamicin-induced sensorineural hearing loss, ABR. Type of data set: in vivo. The method, then: Guinea pigs were used to evaluate the impact of prenatal LCAR supplementation on stress- and gentamicin-induced mortality in newborns because this animal model closely resembles perinatal human physiology. Pregnant guinea pigs (n=25) were divided in five groups. […] In group #2, stress was induced by intraperitoneal injections of normal saline (once daily from days 51 to 57 of gestation). Guinea pigs in group #3 were injected with gentamicin (100 mg/kg once daily from days 51 to 57 of gestation). […] Newborn mortality was defined as either stillborn or death within the first 48 hrs of life.
We investigated the hearing condition and cochlear integrity in the guinea pigs from the five experimental groups described in the above paragraph. Typical ABR recordings from newborn guinea pigs are shown in FIG. 4, while FIG. 5 describes the statistical results. […] Gentamicin (group #3), in contrast, induced a significant increase in hearing threshold in respect to saline (group #2) in mothers (49±3 dB vs. 28±2; P≦0.01) and newborns (38±2 vs. 29±1; P≦0.01).

Data set [12] has as its system newborn guinea pigs. In words: Noise-induced neonatal mortality. The following applies: group #2: broadband noise 95 SPL 4 h/day, days 50-53 of gestation; LCAR 1 mg/ml in water from day 28. It counts as in vivo, guinea pig. The method, then:
as §2
The experimental protocol assume normal delivery after 59-62 days of pregnancy. In fact, control animals delivered at days 59 and 61, respectively. […] Neonatal mortality—expressed as the number of stillborn or newborn death within the first 48 hrs of life over the total number of animals delivered—was 77% in group #1 ( 7/9), 9% in group #2 ( 1/11), and 0% in group #3 (0/9).

Where [13] appears, read: LCAR + Gentamicin = LCAR two weeks prior, Gentamicin + LCAR = simultaneous.

Where two headings read alike, the source gives them in different places. Marks after values point to notes of the source that are not given here.

As to `CC(=O)O[C@H](CC(=O)[O-])C[N+](C)(C)C` [ALCAR, acetyl-L-carnitine], the “effect on noise-induced hearing loss” value in data set [1] is recorded as “attenuates noise-induced hearing loss”.
Consider `N.N.[Cl][Pt][Cl]` [Cisplatin, cisplatin], for which the caspase-9 activity result in [2] (12-hour incubation with 100 μM cisplatin) was “increased about five-fold”. In addition, in data set [2] (cisplatin-treated HEI-OC1 cells), the caspase-8 activity entry is on record as “little change in activity”. For the same compound, the “incubation time after which DNA laddering was visible” value in [3] (100 μM cisplatin, periods 6 hours to 24 hours) stood at 18 h. For the same compound, in [3] (24 hours incubation, doses 25 μM to 500 μM), the “cisplatin concentration at which apoptosis (laddering pattern) was first detected” value stood at 100 µM. For the same compound, in [4], the “average ABR hearing threshold” value is 46±4 dB. In data set [5] (guinea pig, in vivo), the “cisplatin-induced inner hair cell (IHC) damage” value is “no significant”; the “loss of OHCs by cochlear turn” value is “significant loss of OHCs in the first and second turn of the cochlea”. In data set [5] (mothers), the “Total % (damaged/total OHCs)” value is listed as 36.0 (297/824) %, the “damaged OHC (%) Row #1” value turned out to be 39.6%, the “damaged OHC (%) Row #2” value is reported as 32.6% and the “damaged OHC (%) Row #3” value is given as 35.9%. In addition, in [5] (newborns), the “Total % (damaged/total OHCs)” value is 34.9 (443/1268) %, the “damaged OHC (%) Row #1” value amounted to 50.2%, the “damaged OHC (%) Row #2” value was 37.9% and the “damaged OHC (%) Row #3” value is on record as 16.9%.
Take `C[N+](C)(C)C[C@H](O)CC(=O)[O-]` [LCAR, L-carnitine]: the “neonatal mortality (stillborn or death within first 48 hrs)” value came to 15% in [6] (group #4: gentamicin plus LCAR 1 mg/ml in water starting 2 weeks prior), 9% in data set [6] (group #5: gentamicin plus LCAR 1 mg/ml in water starting simultaneously) and 9% in data set [12]. Besides, the “gentamicin-induced cell apoptosis (caspase-3, CaspACE)” value in [7] (then 24 hours 50 μM gentamicin) was “significantly inhibited”. Besides, the “cisplatin-induced cell apoptosis (caspase-3, CaspACE)” value in data set [7] (then 24 hours 200 μM cisplatin) is given as “significantly inhibited”. Besides, the “noise-induced cochlear damage (microscopy)” value in data set [8] (LCAR-supplemented noise-exposed animals) is “significant decrease in cochlear damage”. The “hearing threshold shift in noise-exposed mothers” value in data set [8] (mothers, LCAR supplemented, ten days after delivery) is on record as “no changes were observed”. Moreover, the “hearing threshold in newborns” value in data set [8] (newborns, group #2 noise + LCAR, ten days after delivery) was found to be 30±1 dB. Moreover, the “dietary LCAR absorbed” value in data set [9] (dietary) was 54-87%. In [9], the “LCAR filtered by the kidney that is reabsorbed” value is 90-98%. The “effect on gentamicin-induced OHC death” value in data set [10] (LCAR prior vs simultaneous) is on record as “significantly prevented only in animals supplemented with LCAR two weeks prior gentamicin treatment”. Besides, the “effect on gentamicin-induced stereocilia disruption” value in data set [10] (LCAR provided either prior or simultaneously with gentamicin) was “inhibit gentamicin-induced stereocilia disruption”. The “effect of LCAR supplementation on gentamicin ototoxicity (ABR)” value in data set [11] (LCAR from 28 days of pregnancy (group #4) or coincidental with gentamicin (group #5)) was “attenuates the ototoxic effects of gentamicin in both mothers and pups”. The “effect of LCAR supplementation on cisplatin-induced OHC damage” value in [5] (mothers and newborns) was “attenuates this cisplatin-induced OHC damage”.
Consider gentamicin, for which, in data set [6] (group #3: gentamicin 100 mg/kg once daily, days 51 to 57 of gestation), the “neonatal mortality (stillborn or death within first 48 hrs)” value was 54%. In data set [10] (setting [13]), the “OHC death, OHCs % Row #1” value is 0.6* %; the “OHC death, OHCs % Row #2” value is given as 0.9** %; the “OHC death, OHCs % Row #3” value is 0.8** %; the “OHC death, Total %” value is given as 0.7** %. For the same compound, the “ABR hearing threshold, mothers” value in data set [11] (mothers, group #3 gentamicin 100 mg/kg daily, days 51-57 of gestation) is listed as 49±3 dB. Also, in [11] (newborns, group #3 gentamicin given to pregnant mothers), the “ABR hearing threshold, newborns” value is 38±2 dB.

The values are drawn from patent US20050049305A1, “Use of L-carnitine in the prevention and treatment of hearing loss” (priority 2002, published 2005).
